Test results reported in patent US20060073995A1, “Animal shampoo” (priority 2004, published 2006).

Assay: Stability study of the shampoo solution at room temperature (active ingredient remaining)
Format: physicochemical
Experimental: Solution was stirred and stability studies were performed at room temperature

## N-chloro-4-carboxybenzenesulfonamide disodium salt
In Example 1 shampoo (1% active, pH just below 9), after 49 days
  N-chloro-4-carboxybenzenesulfonamide disodium salt active ingredient remained: 84.8%
In Example 2 shampoo (1% active, pH 9), after 62 days
  N-chloro-4-carboxybenzenesulfonamide disodium salt active ingredient remained: 100%
In Example 3 shampoo (1% active, pH 9), after 62 days
  N-chloro-4-carboxybenzenesulfonamide disodium salt active ingredient remained: 88.1%
